Among the data in patent US12202818B2, “Compounds and methods for CD73 modulation and indications therefor” (Opna Bio SA, priority 2020, dated 2025) are IC50 values, retold here.

Test [1] deals with T1, Human CD73 (amino acid residues 27-549) (Homo sapiens, UniProt P21589).
T1 construct: Human CD73 (amino acid residues 27-549); His tag (N); made in house; host or cells: E. coli
T1 sequence (P21589 27-549): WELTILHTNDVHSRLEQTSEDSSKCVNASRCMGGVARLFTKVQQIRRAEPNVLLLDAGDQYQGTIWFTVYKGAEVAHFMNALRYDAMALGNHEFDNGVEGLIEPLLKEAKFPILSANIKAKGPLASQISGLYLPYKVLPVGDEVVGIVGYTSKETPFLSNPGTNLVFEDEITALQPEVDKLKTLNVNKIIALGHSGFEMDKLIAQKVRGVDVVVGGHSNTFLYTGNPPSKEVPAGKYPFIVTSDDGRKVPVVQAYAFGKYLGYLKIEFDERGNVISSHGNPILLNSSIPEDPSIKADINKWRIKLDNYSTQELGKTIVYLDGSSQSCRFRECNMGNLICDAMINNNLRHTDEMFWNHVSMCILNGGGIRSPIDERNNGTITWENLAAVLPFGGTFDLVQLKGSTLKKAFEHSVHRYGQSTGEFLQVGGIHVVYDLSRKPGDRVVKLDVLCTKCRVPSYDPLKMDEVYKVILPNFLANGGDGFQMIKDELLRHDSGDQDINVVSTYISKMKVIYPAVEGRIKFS
Kind of test: CD73 enzymatic assay (luciferase-based indirect assay, CellTiter-Glo). The test is classed as biochemical. To be noted: 0.4 nM CD73, 150 μM AMP, 1 hour at room temperature. In outline:
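N-His human CD73 (27-549) expressed in E. coli, 0.4 nM, incubated with 150 μM AMP and compound in 50 mM HEPES pH 7.4, 0.01% Tween-20, 1 h at RT. Remaining AMP read via CellTiter-Glo luminescence with 1 μM ATP after 30 min; IC50 from nonlinear regression of % inhibition.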

A further test addresses T2, human CD73 (Homo sapiens, UniProt P21589).
T2 construct: expressed in transfected cells
T2 sequence (P21589 27-549): T1 sequence (P21589 27-549)
As to the kind of experiment: Inhibitor activity against CD73 in cell based assay (CD73 expressing CHO-K1 cells). The note with it: CHO-K1 cells expressing human CD73, 150 μM AMP, 4 hours of incubation; read-out: CHO-K1 CELL_VARIANT: CD73 IC50. In short, it runs like this:
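Stable human CD73 CHO-K1 cells, 1×10^4/well, exposed to an 8-point 1:3 compound series (top 10 μM, 0.2% DMSO) plus 150 μM AMP for 4 h. Remaining AMP in the supernatant was read by CellTiter-Glo 2.0 luminescence with 1 μM ATP after 30 min at room temperature. IC50 came from nonlinear regression of % inhibition against cell and media-only controls.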

For orientation: IC50 means the concentration needed to halve the response being measured. Take `O=C(Nc1ccc(-c2ccnc(O[C@@H]3CCN(c4cn[nH]c(=O)c4Cl)C3)c2)c(F)c1)C1CCC1` [P-0212, (R)-N-(4-(2-((1-(5-chloro-6-oxo-1,6-dihydropyridazin-4-yl)pyrrolidin-3-yl)oxy)pyridin-4-yl)-3-fluorophenyl)cyclobutane-carboxamide]: the IC50 (in test [1]; at human CD73) was 0.001 to 10 µM in each case.
With `CC(=O)Nc1ccc(-c2ccnc(O[C@@H]3CCN(c4cn[nH]c(=O)c4Cl)C3)c2)c(F)c1` [P-0213, (R)-N-(4-(2-((1-(5-chloro-6-oxo-1,6-dihydropyridazin-4-yl)pyrrolidin-3-yl)oxy)pyridin-4-yl)-3-fluorophenyl)acetamide], the IC50 (in test [1]; on human CD73) was 0.001 to 10 µM in each case.
Take `O=C(Nc1ccc(-c2ccnc(O[C@@H]3CCN(c4cn[nH]c(=O)c4Cl)C3)c2)c(F)c1)c1ccccc1` [P-0214, (R)-N-(4-(2-((1-(5-chloro-6-oxo-1,6-dihydropyridazin-4-yl)pyrrolidin-3-yl)oxy)pyridin-4-yl)-3-fluorophenyl)benzamide]: the IC50 (in test [1]; at human CD73) was 0.001 to 10 µM in each case.
Turning to `O=c1[nH]ncc(N2CC[C@@H](Oc3cc(-c4ccnc(O[C@@H]5CCN(c6cn[nH]c(=O)c6Cl)C5)c4)ccn3)C2)c1Cl` [P-0215, 5,5′-((3R,3′R)-([4,4′-bipyridine]-2,2′-diylbis(oxy))bis(pyrrolidine-3,1-diyl))bis(4-chloropyridazin-3(2H)-one)], the values for the IC50 (in test [1]; at human CD73) were 0.001 to 10 µM and 10 to 100 µM, respectively.
`CCCNS(=O)(=O)c1ccc(-c2cc(F)nc(O[C@@H]3CCN(c4cn[nH]c(=O)c4Cl)C3)c2)c(C)c1` [P-0216, (R)-4-(2-((1-(5-chloro-6-oxo-1,6-dihydropyridazin-4-yl)pyrrolidin-3-yl)oxy)-6-fluoropyridin-4-yl)-3-methyl-N-propylbenzenesulfonamide]: the IC50 (in test [1]; at human CD73) was 0.001 to 10 µM each time.
For `Cc1cc(S(=O)(=O)NC2CC2)ccc1-c1cc(F)nc(O[C@@H]2CCN(c3cn[nH]c(=O)c3Cl)C2)c1` [P-0217, (R)-4-(2-((1-(5-chloro-6-oxo-1,6-dihydropyridazin-4-yl)pyrrolidin-3-yl)oxy)-6-fluoropyridin-4-yl)-N-cyclopropyl-3-methylbenzenesulfonamide], the IC50 (in test [1]; on human CD73) was 0.001 to 10 µM in each case.
For the molecule `COC(=O)Cc1ccc(-c2ccnc(O[C@@H]3CCN(c4cn[nH]c(=O)c4Cl)C3)c2)c(F)c1` [P-0218, methyl (R)-2-(4-(2-((1-(5-chloro-6-oxo-1,6-dihydropyridazin-4-yl)pyrrolidin-3-yl)oxy)pyridin-4-yl)-3-fluorophenyl)acetate], the IC50 (in test [1]; on human CD73) was 0.001 to 10 µM throughout.
As to `O=C(O)Cc1ccc(-c2ccnc(O[C@@H]3CCN(c4cn[nH]c(=O)c4Cl)C3)c2)c(F)c1` [P-0219, (R)-2-(4-(2-((1-(5-chloro-6-oxo-1,6-dihydropyridazin-4-yl)pyrrolidin-3-yl)oxy)pyridin-4-yl)-3-fluorophenyl)acetic acid], the figures for the IC50 (in test [1]; on human CD73) were 0.001 to 10 µM and 10 to 100 µM, respectively.
Consider `Nc1ccc(-c2ccnc(O[C@@H]3CCN(c4cn[nH]c(=O)c4Cl)C3)c2)c(F)c1` [P-0220, (R)-5-(3-((4-(4-amino-2-fluorophenyl)pyridin-2-yl)oxy)pyrrolidin-1-yl)-4-chloropyridazin-3(2H)-one], for which the IC50 (in test [1]; on human CD73) was 0.001 to 10 µM throughout.
As to `O=c1[nH]ncc(N2CC[C@@H](Oc3cc(N4CCC(NS(=O)(=O)C5CC5)CC4)ccn3)C2)c1Cl` [P-0221, (R)-N-(1-(2-((1-(5-chloro-6-oxo-1,6-dihydropyridazin-4-yl)pyrrolidin-3-yl)oxy)pyridin-4-yl)piperidin-4-yl)cyclopropanesulfonamide], the IC50 (in test [1]; on human CD73) was 0.001 to 10 µM each time.
